Reference: paper PMC9127750, “Structure-based design of CDC42 effector interaction inhibitors for the treatment of cancer” (Cell reports, 2022)
Where “and” joins values, the source holds several entries; their conditions need not be identical. Equal entries are not always repeated.

Test system: WM3248 melanoma cells, 486 antibodies
Assay: Reverse phase protein arrays (RPPA);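 on CA9.R.C RPPA level: ratio of treated to vehicle (0 µM) normalized linear protein signal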;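 on CD171.M.V RPPA level: ratio of treated to vehicle (0 µM) normalized linear protein signal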
Type: cell-based, Human
Conditions: 10 uM
Source text: Pellets were snap frozen in liquid nitrogen and shipped to MD Anderson Cancer Center core RPPA facility for RPPA analysis (Table S5). Three biological replicates for each sample were generated.
Nomenclatures on the RPPA heatmaps: name_of_antibody.species_of_antibody.status_of_antibody. V - antibody validated; C - validation of antibody in progress; Q - antibody nonspecific; E – under evaluation; antibodies raised in M - mouse, G - goat, R - rabbit, or T - rat.

CN(C)c1cccc(Nc2cc(-c3ccccc3)nc(C3CCNCC3)n2)c1 [ARN22089, N1,N1-dimethyl-N3-(6-phenyl-2-(piperidin-4-yl)pyrimidin-4-yl)benzene-1,3-diamine]
RPPA signal, antibody VEGFR.2_pY1175.R.C, Average (average of 3 replicates): 1.049
RPPA signal, antibody VHL.EPPK1.M.C, Average (average of 3 replicates): 1.196
RPPA signal, antibody VHL.R.C, Average (average of 3 replicates): 1.035
RPPA signal, antibody Vinculin.M.V, Average (average of 3 replicates): 0.966
RPPA signal, antibody WIPI1.R.C, Average (average of 3 replicates): 1.121
RPPA signal, antibody WIPI2.R.C, Average (average of 3 replicates): 0.943
RPPA signal, antibody WTAP.R.V, Average (average of 3 replicates): 1.119
RPPA signal, antibody Wee1.R.C, Average (average of 3 replicates): 1.020
RPPA signal, antibody Wee1_pS642.R.C, Average (average of 3 replicates): 0.998
RPPA signal, antibody XBP.1.G.C, Average (average of 3 replicates): 1.065
RPPA signal, antibody XIAP.R.C, Average (average of 3 replicates): 1.012
RPPA signal, antibody XPA.M.V, Average (average of 3 replicates): 1.058
RPPA signal, antibody XRCC1.R.C, Average (average of 3 replicates): 1.060
RPPA signal, antibody YAP_pS127.R.V, Average (average of 3 replicates): 0.978
RPPA signal, antibody YB1_pS102.R.V, Average (average of 3 replicates): 0.958
RPPA signal, antibody YES1.R.V, Average (average of 3 replicates): 1.020
RPPA signal, antibody YTHDF2.R.V, Average (average of 3 replicates): 0.990
RPPA signal, antibody YTHDF3.R.C, Average (average of 3 replicates): 1.018
RPPA signal, antibody ZAP.70.R.V, Average (average of 3 replicates): 1.001
RPPA signal, antibody ZEB1.R.V, Average (average of 3 replicates): 1.024
RPPA signal, antibody TSC1.R.C (individual replicates): 0.828 and 0.939
RPPA signal, antibody TTF1.R.V (individual replicates): 0.920 and 0.873 and 1.035
RPPA signal, antibody TUFM.R.V (individual replicates): 1.384 and 1.533
RPPA signal, antibody Tuberin.R.V (individual replicates): 1.063 and 0.958 and 0.778
RPPA signal, antibody Tuberin_pT1462.R.V (individual replicates): 1.389 and 0.896
RPPA signal, antibody Twist.M.C (individual replicates): 1.022 and 1.114
RPPA signal, antibody Tyro3.R.V (individual replicates): 1.207 and 1.432 and 1.052
RPPA signal, antibody U.Histone.H2B.R.C (individual replicates): 0.675 and 0.846 and 0.974
RPPA signal, antibody UBAC1.R.V (individual replicates): 0.909 and 0.974 and 0.962
RPPA signal, antibody UBQLN4.M.C (individual replicates): 1.002 and 0.908 and 1.014
RPPA signal, antibody UGT1A.M.V (individual replicates): 1.078 and 1.131 and 1.024
RPPA signal, antibody ULK1_pS757.R.C (individual replicates): 0.907 and 0.952
RPPA signal, antibody UQCRC2.M.C (individual replicates): 0.984 and 1.001 and 0.779
RPPA signal, antibody UVRAG.R.C (individual replicates): 0.941 and 0.945 and 1.016
RPPA signal, antibody VASP.R.V (individual replicates): 0.853 and 0.873 and 0.935
RPPA signal, antibody VAV1.R.C (individual replicates): 0.917 and 0.930 and 0.971
RPPA signal, antibody VEGFR.2.R.V (individual replicates): 0.830 and 0.863 and 1.064
RPPA signal, antibody VEGFR.2_pY1175.R.C (individual replicates): 1.135 and 1.035 and 0.978
RPPA signal, antibody VHL.EPPK1.M.C (individual replicates): 1.361 and 1.047
RPPA signal, antibody VHL.R.C (individual replicates): 1.048 and 1.060 and 0.997
RPPA signal, antibody Vinculin.M.V (individual replicates): 0.834 and 1.032 and 1.034
RPPA signal, antibody WIPI1.R.C (individual replicates): 1.084 and 1.260 and 1.018
RPPA signal, antibody WIPI2.R.C (individual replicates): 1.004 and 0.919 and 0.906
RPPA signal, antibody WTAP.R.V (individual replicates): 0.973 and 1.303 and 1.081
RPPA signal, antibody Wee1.R.C (individual replicates): 0.837 and 1.193 and 1.031
RPPA signal, antibody Wee1_pS642.R.C (individual replicates): 0.842 and 1.057
RPPA signal, antibody XBP.1.G.C (individual replicates): 1.054 and 1.065 and 1.076
RPPA signal, antibody XIAP.R.C (individual replicates): 0.980 and 0.995 and 1.063
RPPA signal, antibody XPA.M.V (individual replicates): 0.998 and 1.083
RPPA signal, antibody XPF.R.C (individual replicates): 1.061 and 1.058 and 1.015
RPPA signal, antibody XRCC1.R.C (individual replicates): 1.098 and 1.017
RPPA signal, antibody YAP.R.C (individual replicates): 1.046 and 1.136 and 1.017
RPPA signal, antibody YAP_pS127.R.V (individual replicates): 0.857 and 1.020 and 1.056
RPPA signal, antibody YB1_pS102.R.V (individual replicates): 0.792 and 0.995
RPPA signal, antibody YES1.R.V (individual replicates): 0.963 and 1.023
RPPA signal, antibody YTHDF2.R.V (individual replicates): 0.973 and 0.926
RPPA signal, antibody YTHDF3.R.C (individual replicates): 1.046 and 1.052 and 0.954
RPPA signal, antibody ZAP.70.R.V (individual replicates): 0.965 and 0.999
RPPA signal, antibody ZEB1.R.V (individual replicates): 0.993 and 0.988
C.Raf.R.C RPPA level (replicates): 1.022 and 0.897 and 0.901
C.Raf_pS338.R.V RPPA level (replicates): 0.937 and 0.962
CA9.R.C RPPA level (replicates): 0.963 and 0.920 and 1.058
CD2.M.C RPPA level (replicates): 1.046 and 1.013
CD4.R.V RPPA level (replicates): 0.841 and 0.982 and 0.984
CD5.M.C RPPA level (replicates): 1.032 and 1.016
CD20.R.C RPPA level (replicates): 0.915 and 1.113 and 1.048
CD26.R.V RPPA level (replicates): 0.862 and 0.937 and 1.046
CD29.M.V RPPA level (replicates): 1.013 and 0.983 and 1.052
CD31.M.V RPPA level (replicates): 1.033 and 1.057 and 1.013
CD38.R.C RPPA level (replicates): 0.895 and 0.963
CD44.R.C RPPA level (replicates): 1.029 and 1.050
CD45.M.V RPPA level (replicates): 1.006 and 1.019
CD49b.M.V RPPA level (replicates): 1.003 and 0.999
CD68.M.C RPPA level (replicates): 1.022 and 1.011
CD74.M.V RPPA level (replicates): 0.984 and 1.053
CD134.R.V RPPA level (replicates): 1.005 and 1.057 and 0.995
CD171.M.V RPPA level (replicates): 0.591 and 0.987 and 1.115
CDK1_pT14.R.C RPPA level (replicates): 1.201 and 0.649 and 0.946
CDK9.R.V RPPA level (replicates): 1.078 and 0.919
CDKN2A.R.C RPPA level (replicates): 1.006 and 1.160
CDT1.R.V RPPA level (replicates): 0.973 and 1.157 and 1.014
